Legend:
[1] = tested on: NCI-H23; assay: NCI-60 screening (SRB); format: cell-based, human; settings: five-dose
[2] = tested on: RPMI-8226; assay: NCI-60 screening (SRB); format: cell-based, human; settings: five-dose
[3] = tested on: A549/ATCC; assay: NCI-60 screening (SRB); format: cell-based, human; settings: five-dose
[4] = tested on: LOX IMVI; assay: NCI-60 screening (SRB); format: cell-based, human; settings: LOX IMVI, five-dose
[5] = tested on: MOLT-4; assay: NCI-60 screening (SRB); format: cell-based, human; settings: five-dose
[6] = tested on: Ovarian cancer; assay: NCI-60 screening (SRB), subpanel; format: cell-based
Description: (§1) The experimental data allow the assessment of the cytostatic effect, indicated by growth inhibition values ranging between 0 and 100, as well as of the cytotoxic effect, indicated by negative values.
(§2) The mean GI50 (molar concentration of the compound that inhibits 50% net cell growth), TGI (molar concentration of the compound leading to the total inhibition), and LC50 (molar concentration of the compound leading to 50% net cell death (presented in negative logarithm)) values across each cell line are shown in Table 2.
(§3) The selectivity index (SI), calculated as the ratio between the full panel MG_MID60 (μM) of compounds 4, 6, and 9 by their respective subpanels MG_MID of the cell line (μM), was introduced as a quantification tool for the selectivity of each compound in terms of anticancer effect (Table 3).
(§4) Primary anticancer assays were performed according to the NCI protocol, as described elsewhere (see e.g., http://dtp.nci.nih.gov accessed on 1 November 2018). The compounds were added at a single concentration, and the cell cultures were incubated for 48 h. The end point determinations were made with a protein-binding dye, sulforhodamine B (SRB). […] The percentage of growth was evaluated spectrophotometrically versus controls not treated with test agents after 48 h exposure and using SRB protein assay to estimate cell viability or growth. Three antitumor activity dose-response parameters were calculated for each cell line. Furthermore, mean graph midpoints (MG_MID) were calculated for each of the parameters, giving an average activity parameter over all cell lines for the tested compound. For the MG_MID calculation, insensitive cell lines were included with the highest concentration tested.

[7] = tested on: Leukemia; assay: NCI-60 screening (SRB), subpanel; format: cell-based
Description: as §1, §2, §3, §4

[8] = tested on: NSC lung cancer; assay: NCI-60 screening (SRB), subpanel; format: cell-based
Description: as §1, §2, §3, §4

[9] = tested on: Melanoma; assay: NCI-60 screening (SRB), subpanel; format: cell-based
Description: as §1, §2, §3, §4

[10] = tested on: Prostate cancer; assay: NCI-60 screening (SRB), subpanel; format: cell-based
Description: as §1, §2, §3, §4

[11] = tested on: Colon Cancer; assay: NCI-60 screening (SRB), subpanel; format: cell-based
Description: as §1, §2, §3, §4

[12] = tested on: Breast cancer; assay: NCI-60 screening (SRB), subpanel; format: cell-based
Description: as §1, §2, §3, §4

[13] = tested on: Renal Cancer; assay: NCI-60 screening (SRB), subpanel; format: cell-based
Description: as §1, §2, §3, §4

[14] = tested on: HCT-15; assay: NCI-60 screening (SRB); format: cell-based, human; settings: five-dose
[15] = tested on: IGROV1; assay: NCI-60 screening (SRB); format: cell-based, human
[16] = tested on: SF-295; assay: NCI-60 screening (SRB); format: cell-based, human; settings: five-dose
[17] = tested on: UO-31; assay: NCI-60 screening (SRB); format: cell-based, human; settings: five-dose
[18] = tested on: SNB-19; assay: NCI-60 screening (SRB); format: cell-based, human; settings: five-dose
[19] = tested on: HL-60(TB); assay: NCI-60 screening (SRB); format: cell-based, human; settings: HL-60(TB), five-dose
[20] = tested on: SK-OV-3; assay: NCI-60 screening (SRB); format: cell-based, human; settings: Homo sapiens, five-dose
[21] = tested on: HOP-62; assay: NCI-60 screening (SRB); format: cell-based, human; settings: five-dose
[22] = tested on: UACC-257; assay: NCI-60 screening (SRB); format: cell-based, human; settings: five-dose
[23] = tested on: SK-MEL-2; assay: NCI-60 screening (SRB); format: cell-based, human; settings: five-dose
[24] = tested on: PC-3; assay: NCI-60 screening (SRB); format: cell-based, human; settings: five-dose
[25] = tested on: HCT-116; assay: NCI-60 screening (SRB); format: cell-based, human; settings: five-dose
[26] = Homo sapiens, read-out: LC50 (the source's name)

CCN1CCN(C(=O)[C@]23CCC(C)(C)C[C@H]2C2=CC[C@@H]4[C@@]5(C)C/C(=C/c6cccnc6)C(=O)C(C)(C)[C@@H]5CC[C@@]4(C)[C@]2(C)CC3)CC1 [Compound 6]
GI50 ([1]; Homo sapiens): 2.1 µM | CC50 [1, 26]: 27.8 µM | TGI [1]: 5.85 µM | GI50 ([2]; Homo sapiens): 1.03 µM | CC50 [2, 26]: > 100 µM | TGI [2]: 5.20 µM | GI50 ([3]; Homo sapiens): 2.62 µM | CC50 [3, 26]: > 100 µM | TGI [3]: 13.4 µM | GI50 ([4]; Homo sapiens): 1.36 µM | CC50 [4, 26]: 5.45 µM | TGI [4]: 2.73 µM | GI50 ([5]; Homo sapiens): 1.43 µM | CC50 [5, 26]: > 100 µM | TGI [5]: >100 µM | GI50 ([6]; Homo sapiens, Ovarian cancer subpanel, five-dose, read-out: GI50 MG_MID): 2.15 µM | CC50 ([6]; Homo sapiens, Ovarian cancer subpanel, five-dose, read-out: LC50 MG_MID): 36.2 µM | SI (TGI) ([6]; Ovarian Cancer, MG_MID60/subpanel MG_MID): 1.52 | TGI MG_MID ([6]; Ovarian cancer subpanel, five-dose): 4.14 µM | CC50 ([7]; Homo sapiens, Leukemia subpanel, five-dose, read-out: LC50 MG_MID): > 100 µM | TGI MG_MID ([7]; Leukemia subpanel, five-dose): 5.10 µM | SI (TGI) ([7]; Leukemia, MG_MID60/subpanel MG_MID): 0.30 | GI50 ([8]; Homo sapiens, NSC lung cancer subpanel, five-dose, read-out: GI50 MG_MID): 1.91 µM | CC50 ([8]; Homo sapiens, NSC lung cancer subpanel, five-dose, read-out: LC50 MG_MID): 29.7 µM | TGI MG_MID ([8]; NSC lung cancer subpanel, five-dose): 5.83 µM | SI (TGI) ([8]; NSCL cancer, MG_MID60/subpanel MG_MID): 1.08 | GI50 ([9]; Homo sapiens, Melanoma subpanel, five-dose, read-out: GI50 MG_MID): 1.54 µM | CC50 ([9]; Homo sapiens, Melanoma subpanel, five-dose, read-out: LC50 MG_MID): 9.2 µM | TGI MG_MID ([9]; Melanoma subpanel, five-dose): 3.21 µM | SI (TGI) ([9]; Melanoma, MG_MID60/subpanel MG_MID): 1.96 | GI50 ([10]; Homo sapiens, Prostate cancer subpanel, five-dose, read-out: GI50 MG_MID): 1.42 µM | CC50 ([10]; Homo sapiens, Prostate cancer subpanel, five-dose, read-out: LC50 MG_MID): 8.01 µM | TGI MG_MID ([10]; Prostate cancer subpanel, five-dose): 3.34 µM | SI (TGI) ([10]; Prostate cancer, MG_MID60/subpanel MG_MID): 1.89 | TGI MG_MID ([11]; Colon Cancer subpanel, five-dose): 3.51 µM | SI (TGI) ([11]; Colon Cancer, MG_MID60/subpanel MG_MID): 1.99 | GI50 ([11]; Homo sapiens, Colon Cancer subpanel, five-dose, read-out: GI50 MG_MID): 1.52 µM | CC50 ([11]; Homo sapiens, Colon Cancer subpanel, five-dose, read-out: LC50 MG_MID): 25.4 µM | TGI MG_MID ([12]; Breast cancer subpanel, five-dose): 5.30 µM | SI (TGI) ([12]; Breast cancer, MG_MID60/subpanel MG_MID): 1.17 | GI50 ([12]; Homo sapiens, Breast cancer subpanel, five-dose, read-out: GI50 MG_MID): 1.67 µM | CC50 ([12]; Homo sapiens, Breast cancer subpanel, five-dose, read-out: LC50 MG_MID): 39.6 µM | GI50 ([13]; Homo sapiens, Renal cancer subpanel, five-dose, read-out: GI50 MG_MID): 1.97 µM | LC50 (50% net cell kill) ([13]; Homo sapiens, Renal cancer subpanel, five-dose, read-out: LC50 MG_MID): 20.2 µM | SI (TGI) ([13]; Renal Cancer, MG_MID60/subpanel MG_MID): 0.96 | TGI MG_MID ([13]; Renal cancer subpanel, five-dose): 6.54 µM | GI50 ([14]; Homo sapiens): 1.08 µM | CC50 [14, 26]: 6.79 µM | TGI [14]: 2.71 µM | GI50 ([15]; Homo sapiens, IGROV-1, five-dose): 1.91 µM | CC50 ([15]; Homo sapiens, IGROV-1, five-dose, read-out: LC50 (the source's name)): 9.1 µM | TGI ([15]; five-dose): 4.16 µM | GI50 ([16]; Homo sapiens): 1.66 µM | CC50 [16, 26]: 5.97 µM | TGI [16]: 3.15 µM | GI50 ([17]; Homo sapiens): 1.35 µM | CC50 [17, 26]: 5.32 µM | TGI [17]: 2.67 µM | GI50 ([18]; Homo sapiens): 1.68 µM | CC50 [18, 26]: 7.12 µM | TGI [18]: 3.46 µM | TGI [19]: 9.02 µM | GI50 ([19]; Homo sapiens): 2.1 µM | CC50 [19, 26]: > 100 µM | GI50 [20]: 4.19 µM | CC50 ([20]; read-out: LC50 (the source's name)): 76.1 µM | GI50 ([21]; Homo sapiens): 1.88 µM | LC50 ([21]; Homo sapiens): 7.47 µM | TGI [21]: 3.75 µM | GI50 ([22]; Homo sapiens): 1.61 µM | CC50 [22, 26]: 33.8 µM | TGI [22]: 4.29 µM | GI50 ([23]; Homo sapiens): 1.93 µM | CC50 [23, 26]: 8.16 µM | TGI [23]: 3.96 µM | GI50 ([24]; Homo sapiens): 1 µM | CC50 [24, 26]: 7.78 µM | TGI [24]: 2.79 µM | GI50 ([25]; Homo sapiens): 1.01 µM | CC50 [25, 26]: 4.89 µM | TGI [25]: 2.22 µM

Source: PMC8536124 (International Journal of Molecular Sciences, 2021)
